Test results: patent US11174223B2, “Compositions, methods, and systems for the synthesis and use of imaging agents” (Lantheus Medical Imaging, Inc., priority 2010, dated 2021)
Where a name gives a salt, the structure may show the parent alone.

Legend:
[1] = test system: norepinephrine transporter (NET), uptake 1; experiment: Heart uptake in rabbits after uptake 1 blockade (desipramine) or 6-hydroxydopamine sympathetic denervation; assay type: in vivo; settings: denervated rabbits and uptake 1 blocked rabbits and NHPs
Description: (§1) Imaging agent-1 was designed as a substrate for the norepinephrine transporter (NET) to image the cardiac sympathetic nervous system. […] These values were similar to that of MIBG (2.12±0.26 μM and 4.76±0.78 pmol/min/million cells). In animals, tissue biodistribution of imaging agent-1 was assessed by tissue sampling at 15- and 60-minute following administration. Heart uptake was 2.36±0.16 and 2.17±0.12% injected dose per g tissue (% ID/g) in rats and 0.25±0.03 and 0.28±0.03% ID/g in rabbits. In rabbits, desipramine (1 mg/kg) inhibited heart uptake of imaging agent-1 by 68% and ^123I-MIBG uptake by 55% at 1 hour post dose.
(§2) Desipramine, a selective uptake 1 inhibitor, was used to block cardiac uptake 1 in rats (10 mg/kg, ip), rabbits (1 mg/kg iv), and NHPs (0.5 mg/kg, iv). 6-hydroxydopamine, a neurotoxin, was injected to induce sympathetic denervation in rats (100 mg/kg ip for 7 days) and rabbits (25 mg/kg iv on day 1, 2, 7, and 8). Imaging agent-1 heart uptake in comparison with MIBG was assessed by tissue sampling at 60 minutes post imaging agent injection. Imaging was also performed with (2-tert-butyl-4-chloro-5-[4-(2-[^18F]fluoroethoxymethyl)-benzyloxy]-2H-pyridazin-3-1.

[2] = Cardiac PET imaging in rabbit model of regional cardiac sympathetic denervation (RCSD) and re-innervation; assay type: in vivo, rabbits; settings: all rabbits including those with RCSD regions
Description: (§3) Rabbit models of RCSD were developed by applying phenol directly on the surface of the left ventricular wall during a sternotomy. Two and twelve weeks following the procedure, imaging agent-1 cardiac PET imaging (˜1.5 mCi, iv) were performed in these rabbits. The myocardial area with radioactivity ≥50% maximum was quantified as innervated region for comparison. To evaluate susceptibility of arrhythmia in rabbits, dofetilide (10 and 40 μg/kg iv, a delayed IKr inhibitor) induced changes were assessed by measuring ECG including heart rate (HR), QTc interval (corrected by Fridericia method), and frequency of arrhythmia.

[3] = Cardiac PET imaging in rabbit models of regional and systemic cardiac sympathetic denervation (CSD); assay type: in vivo, rabbits; settings: rabbits
Description: Rabbit models of regional and systemic CSD were used. To develop regional CSD, a median sternotomy was performed and phenol (89% in liquid) was pained on the anterior and posterior walls of the left ventricle. To develop systemic denervation the neurotoxin, 6-hydroxydopamine (25 mg/kg on day 1, 2, 7 and 8), was administered intravenously. Two weeks following these procedures, rabbits were imaged with imaging agent-1 (˜1.5 mCi, i.v.) using a microPET camera for 30 minutes.

[4] = test system: norepinephrine transporter (NET), uptake 1; experiment: Heart uptake in rats after uptake 1 blockade (desipramine) or 6-hydroxydopamine sympathetic denervation; assay type: in vivo; settings: sympathetic denervated rats
Description: as §2

[5] = Solubility of salt forms in acetonitrile; assay type: physicochemical; settings: organic solvent or mixture, read-out: Solubility (Acetonitrile; mg/mL)
Text: (§4) Selected physical properties of the salts of Examples 5-6 and 8-12, determined using established characterization methods, are tabulated below (Table 1).

[6] = Hygroscopicity of salt forms of imaging agent precursor-1; assay type: physicochemical; settings: salt form of imaging agent precursor-1
Text: as §4

[7] = Thermal stability of salt forms; assay type: physicochemical; settings: salt form of imaging agent precursor-1
Text: as §4

NET [8] = target: T1, NET (Homo sapiens, UniProt P23975); experiment: NET mediated uptake kinetics in SK-N-SH cells; assay type: cell-based; set-up: endogenous in cells; host or cells: SK-N-SH
Description: (§5) The affinity (Ki) was determined in a competition binding assay by incubating ^19F-imaging agent-1, a cold analog of imaging agent-1, or NE with ^3H-desmethylimipramine in cell membrane overexpressing human NET. The uptake selectivity was assessed by measuring imaging agent-1 or ^3H-NE cell uptake with and without pretreatment of desipramine, a selective NET inhibitor, in SK—N—SH (human neuroblastoma) and PC-12 (rat pheochromocytoma) cells. In SK—NSH cells, the uptake kinetics (Km and Vmax) were evaluated by measuring NET mediated uptake of imaging agent-1 or NE at various concentrations. Imaging agent-1 cardiac image quality was evaluated by PET imaging (˜1.5 mCi, i.v.) in rabbits in the presence and absence of desipramine (1 mg/kg).

NET [9] = target: T1, NET; experiment: Cell uptake selectivity with and without desipramine in SK-N-SH cells; assay type: cell-based; set-up: endogenous in cells; host or cells: SK-N-SH
Description: as §5

NET [10] = target: T2, NET (Rattus norvegicus, UniProt Q63380); experiment: Cell uptake selectivity with and without desipramine in PC-12 cells; assay type: cell-based
T2 construct: endogenous in cells; host or cells: PC-12
Description: as §5

NET [11] = target: T1, NET; experiment: Effect of heart failure medications on NET mediated imaging agent-1 uptake in SK-N-SH cells; assay type: cell-based; set-up: endogenous in cells; host or cells: SK-N-SH; settings: even at the highest concentrations tested (1000 μM)
[12] = Stability of salt forms to GVS and 40° C./75% RH; assay type: physicochemical; settings: salt form of imaging agent precursor-1
Text: as §4

[13] = Dofetilide induced ECG changes (arrhythmia susceptibility) in RCSD rabbits; assay type: in vivo; settings: RCSD versus control
Description: as §3

[14] = target: T3, norepinephrine transporter (NET), uptake 1 (Oryctolagus cuniculus, UniProt G1TDF9); experiment: Heart uptake in rabbits after uptake 1 blockade (desipramine) or 6-hydroxydopamine sympathetic denervation; assay type: in vivo; settings: rabbits, desipramine 1 mg/kg, 1 hour post dose
T3 construct: from tissue; host or cells: rabbit heart, in vivo
Description: as §1, §2

[15] = target: T4, norepinephrine transporter (NET) (Homo sapiens, UniProt P23975); experiment: Uptake and uptake kinetics in SH-SY5Y human neuroblastoma cells; assay type: cell-based; settings: SH-SY5Y cells
T4 construct: endogenous in cells; host or cells: SH-SY5Y
Description: as §1

[16] = Heart uptake by tissue sampling in Dahl Salt Sensitive (DSS) rats, a model of heart failure; assay type: in vivo
Description: The prognostic value of imaging agent-1 was evaluated in Dahl Salt Sensitive (DSS) rats, a rat model of heart failure (HF), and compared with ^123I-meta-iodobenzylguanidine (^123I-MIBG). DSS rats were fed either a low salt (0.1% as control) or high salt diet (8%) for 5 or 9 weeks. To determine the progression of HF in these rats, plasma norepinephrine levels, and heart and lung weights were measured. Compared to low salt diet groups, DSS rats fed a high salt diet for 5 weeks had marked increases in norepinephrine levels (258±28 vs. 1242±184 pg/mL) and heart to body weight ratio (3.3±0.1 vs. 4.5±0.3 mg/g). By 9 weeks, the norepinephrine levels (656±219 vs. 1508±165 pg/mL) and heart to body weight ratio (3.2±0.1 vs. 6.1±0.3 mg/g) had increased further and the lung to body weight ratio had become elevated (3.9±0.1 vs. 14.0±1.4 mg/g). […] Imaging agent-1 and MIBG heart uptake was examined in early and late stage HF rats by tissue sampling after intravenous administration. The uptake was measured using a gamma counter and expressed as differential absorption ratio (DAR). The imaging agent-1 heart uptake decreased following progression of HF from early to late stage HF (low salt group vs. high salt group: 6.9±0.6 vs. 5.1±0.6 and 8.1±0.2 vs. 3.1±0.2 DAR at 5 and 9 weeks respectively).

T1 sequence (P23975 whole entry): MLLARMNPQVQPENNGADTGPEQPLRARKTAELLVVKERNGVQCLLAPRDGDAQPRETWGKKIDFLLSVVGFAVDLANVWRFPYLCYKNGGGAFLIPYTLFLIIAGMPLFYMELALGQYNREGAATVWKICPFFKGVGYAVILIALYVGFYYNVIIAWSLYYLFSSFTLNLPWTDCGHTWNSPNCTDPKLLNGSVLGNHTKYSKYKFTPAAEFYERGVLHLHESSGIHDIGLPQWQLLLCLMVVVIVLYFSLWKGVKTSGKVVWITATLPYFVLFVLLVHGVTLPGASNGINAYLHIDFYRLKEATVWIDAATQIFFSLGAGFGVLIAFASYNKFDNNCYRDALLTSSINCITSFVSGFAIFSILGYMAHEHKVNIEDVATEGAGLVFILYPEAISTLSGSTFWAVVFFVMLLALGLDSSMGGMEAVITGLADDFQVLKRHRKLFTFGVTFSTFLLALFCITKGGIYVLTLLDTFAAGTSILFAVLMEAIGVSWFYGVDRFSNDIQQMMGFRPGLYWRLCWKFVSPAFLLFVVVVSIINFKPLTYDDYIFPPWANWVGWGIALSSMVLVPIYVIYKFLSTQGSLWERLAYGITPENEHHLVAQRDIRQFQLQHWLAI
T4 sequence (P23975 whole entry): as above
T2 sequence (Q63380 1-617): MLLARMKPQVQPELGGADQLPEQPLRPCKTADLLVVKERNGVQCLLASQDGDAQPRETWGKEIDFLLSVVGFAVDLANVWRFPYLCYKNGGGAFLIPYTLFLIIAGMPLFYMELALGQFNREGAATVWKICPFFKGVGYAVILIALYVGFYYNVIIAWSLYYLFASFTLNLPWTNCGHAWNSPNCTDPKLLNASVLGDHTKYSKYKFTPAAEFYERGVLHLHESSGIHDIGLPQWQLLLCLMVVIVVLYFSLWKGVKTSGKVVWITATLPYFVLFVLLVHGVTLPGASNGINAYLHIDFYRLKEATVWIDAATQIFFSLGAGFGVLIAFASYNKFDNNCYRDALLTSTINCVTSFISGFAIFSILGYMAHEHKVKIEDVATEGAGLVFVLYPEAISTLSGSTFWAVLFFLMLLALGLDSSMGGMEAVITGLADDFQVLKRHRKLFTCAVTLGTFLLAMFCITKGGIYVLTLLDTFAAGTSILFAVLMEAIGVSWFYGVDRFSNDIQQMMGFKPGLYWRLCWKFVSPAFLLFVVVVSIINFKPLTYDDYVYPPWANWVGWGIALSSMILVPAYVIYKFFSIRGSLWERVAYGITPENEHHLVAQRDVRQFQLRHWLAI
T3 sequence (G1TDF9 1-617): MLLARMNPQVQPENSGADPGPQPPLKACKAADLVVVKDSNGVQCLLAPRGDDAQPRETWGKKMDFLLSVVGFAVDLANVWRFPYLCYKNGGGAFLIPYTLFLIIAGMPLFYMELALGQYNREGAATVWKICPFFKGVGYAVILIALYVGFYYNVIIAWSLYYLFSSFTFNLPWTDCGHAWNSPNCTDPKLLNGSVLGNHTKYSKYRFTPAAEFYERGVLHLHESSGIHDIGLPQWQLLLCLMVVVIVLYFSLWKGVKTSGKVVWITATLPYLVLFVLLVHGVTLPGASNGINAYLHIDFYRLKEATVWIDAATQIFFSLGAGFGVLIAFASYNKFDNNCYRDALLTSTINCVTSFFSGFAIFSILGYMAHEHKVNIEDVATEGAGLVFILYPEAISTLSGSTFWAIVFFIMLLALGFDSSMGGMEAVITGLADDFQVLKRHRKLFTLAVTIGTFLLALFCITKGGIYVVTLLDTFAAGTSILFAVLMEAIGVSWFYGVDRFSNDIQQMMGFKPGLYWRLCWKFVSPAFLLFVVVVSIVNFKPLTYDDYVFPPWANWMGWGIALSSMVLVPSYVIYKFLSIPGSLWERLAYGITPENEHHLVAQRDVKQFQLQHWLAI

CC(C)(C)n1ncc(OCc2ccc(COCC[18F])cc2)c(Cl)c1=O [(2-tert-butyl-4-chloro-5-[4-(2-[^18F]fluoroethoxymethyl)-benzyloxy]-2H-pyridazin-3-1, reference compound]
Cardiac imaging, myocardial activity [1]: marked activity reduction | Perfusion imaging, myocardial distribution [2]: homogeneous myocardial distribution | Cardiac perfusion imaging, control versus denervated rabbits [3]: no differences were observed | Cardiac imaging, myocardial activity versus control [4]: comparable myocardial activity

N=C(N)NCc1ccc(OCCCOS(=O)(=O)c2ccc(Br)cc2)c(Br)c1.O=C(O)c1ccccc1 [Benzoate, 3-(2-Bromo-4-(guanidinomethyl)phenoxy)propyl 4-bromobenzenesulfonate, benzoic acid salt]
solubility [5]: 1.5 mg/mL

N=C(N)NCc1ccc(OCCCOS(=O)(=O)c2ccc(Br)cc2)c(Br)c1 [Sulfate, 3-(2-Bromo-4-(guanidinomethyl)phenoxy)propyl 4-bromobenzenesulfonate, sulfuric acid salt]
Hygroscopicity [6]: Hygroscopic | Thermal stability, First event at [7]: 103 °C

NC[C@H](O)c1ccc(O)c(O)c1 [NE, norepinephrine, reference compound]
Vmax (NET mediated uptake) (NET [8]): 6.2±0.7 pMol/million cells/min | Inhibition of cell uptake by blockade of NET (desipramine) (NET [9]): 97±1% | Inhibition of cell uptake by blockade of NET (desipramine) (NET [10]): 93±1%

CC(=O)O.N=C(N)NCc1ccc(OCCCOS(=O)(=O)c2ccc(Br)cc2)c(Br)c1 [Acetate, 3-(2-Bromo-4-(guanidinomethyl)phenoxy)propyl 4-bromobenzenesulfonate, acetic acid salt]
solubility [5]: 0.4 mg/mL

CCCCc1nc(Cl)c(CO)n1Cc1ccc(-c2ccccc2-c2nn[nH]n2)cc1 [Losartan, losartan]
Effect on imaging agent-1 uptake (NET [11]): no effect

N=C(N)NCc1ccc(OCCCOS(=O)(=O)c2ccc(Br)cc2)c(Br)c1 [Phosphate, 3-(2-Bromo-4-(guanidinomethyl)phenoxy)propyl 4-bromobenzenesulfonate, phosphoric acid salt]
Hygroscopicity [6]: Slight | Stability to GVS and 40° C./75% RH [12]: Stable | Thermal stability, First event at [7]: 155 °C | solubility [5]: 0.3 mg/mL

Cl.N=C(N)NCc1ccc(OCCCOS(=O)(=O)c2ccc(Br)cc2)c(Br)c1 [Hydrochloride, 3-(2-Bromo-4-(guanidinomethyl)phenoxy)propyl 4-bromobenzenesulfonate, hydrochloric acid salt]
Hygroscopicity [6]: Indicates hydrate | Stability to GVS and 40° C./75% RH [12]: Stable | Thermal stability, First event at [7]: 117 °C

CS(=O)(=O)O.N=C(N)NCc1ccc(OCCCOS(=O)(=O)c2ccc(Br)cc2)c(Br)c1 [Mesylate, 3-(2-Bromo-4-(guanidinomethyl)phenoxy)propyl 4-bromobenzenesulfonate, methanesulfonic acid salt]
Hygroscopicity [6]: Slight | Stability to GVS and 40° C./75% RH [12]: Stable | Thermal stability, First event at [7]: 152 °C | solubility [5]: 1.28 mg/mL

N=C(N)NCc1ccc(OCCCOS(=O)(=O)c2ccc(Br)cc2)c(Br)c1.O=C(O)C(F)(F)F [Trifluoroacetate, 3-(2-Bromo-4-(guanidinomethyl)phenoxy)propyl 4-bromobenzenesulfonate, trifluoroacetate salt]
Hygroscopicity [6]: Slight | Stability to GVS and 40° C./75% RH [12]: Stable | Thermal stability, First event at [7]: 142 °C | solubility [5]: 4.68 mg/mL

C[C@H](CS)C(=O)N1CCC[C@H]1C(=O)O [captopril]
Effect on imaging agent-1 uptake (NET [11]): no effect

CN(CCOc1ccc(NS(C)(=O)=O)cc1)CCc1ccc(NS(C)(=O)=O)cc1 [Dofetilide, dofetilide]
Induced QTc prolongation, frequency of premature ventricular contraction, and torsades de pointes ([13]; 10 and 40 μg/kg iv): more prominent in the RCSD group than in control | Induced changes in HR [13]: comparable in the two groups

N=C(N)NCc1cccc([123I])c1 [MIBG, ^123I-meta-iodobenzylguanidine]
Inhibition of heart uptake by desipramine (uptake 1 blockade) [14]: 55% | Vmax (uptake kinetics) [15]: 4.76±0.78 pmol/min/million cells | Heart uptake, differential absorption ratio (DAR) ([16]; high salt group, 5 weeks (early stage HF)): 3.8±0.5 DAR | Heart uptake, differential absorption ratio (DAR) ([16]; high salt group, 9 weeks (late stage HF)): 2.3±0.3 DAR | Heart uptake, differential absorption ratio (DAR) ([16]; low salt group, 5 weeks): 7.3±0.1 DAR | Heart uptake, differential absorption ratio (DAR) ([16]; low salt group, 9 weeks): 7.9±0.5 DAR

N=C(N)NCc1cccc(I)c1 [MIBG, ^123I-meta-iodobenzylguanidine]
Km [15]: 2120 ± 260 nM
